For orientation: MIC means the lowest concentration found to suppress growth. Read a low MIC as inhibition by little substance.

SMILES strings stand for the structures. Values after ≈ are worked out from the molar mass of the structure shown.

The values below come from patent US10314823B2, “Substituted 1,2-dihydro-3H-pyrrolo[1,2-c]imidazol-3-one antibacterial compounds” (IDORSIA PHARMACEUTICALS LTD, priority 2015, dated 2019).

Common to all, as to experiment: Bacterial growth minimal inhibitory concentration (CLSI broth microdilution)
Holding throughout (type): cell-based
On the technique in general: Dilution methods test growth across graded concentrations, often in twofold steps.

For one test, the system named is E. coli ATCC25922. Conditions: quinolone-sensitive strain, cation-adjusted Mueller-Hinton Broth; for MIC: Escherichia coli, ATCC25922. In short, it runs like this: (§1)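 Compounds were serially diluted in cation-adjusted Mueller-Hinton broth, then inoculated with the test strain following the CLSI M7-A7 microdilution standard. The lowest inhibitory concentration is reported as MIC in mg/L.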

A further test relates to K. pneumoniae A-651. The conditions noted are these: multiply resistant strain (in particular quinolone-resistant), cation-adjusted Mueller-Hinton Broth; for MIC: Klebsiella pneumoniae, A651. In short, it runs like this:
as §1

The subject of a further test is P. aeruginosa ATCC27853. The conditions noted are these: quinolone-sensitive strain, cation-adjusted Mueller-Hinton Broth; for MIC: Pseudomonas aeruginosa, ATCC27853. In short, it runs like this:
as §1

As for `C[C@@](CCN1Cc2cc(C#CC#CC3CN(C4CS(=O)(=O)C4)C3)cn2C1=O)(C(=O)NO)S(C)(=O)=O` [Example 63, (2R)-4-(6-((1-(1,1-dioxidothietan-3-yl)azetidin-3-yl)buta-1,3-diyn-1-yl)-3-oxo-1H-pyrrolo[1,2-c]imidazol-2(3H)-yl)-N-hydroxy-2-methyl-2-(methylsulfonyl)butanamide], the MIC came to 1 µg/mL (≈ 1.91 µM) against E. coli ATCC25922, 2 µg/mL (≈ 3.83 µM) in the test with K. pneumoniae A-651 and 4 µg/mL (≈ 7.65 µM) in the test with P. aeruginosa ATCC27853.
For `C[C@@](CCN1Cc2cc(C#CC#CC3CN(CCCO)C3)cn2C1=O)(C(=O)NO)S(C)(=O)=O` [Example 64, (2R)—N-hydroxy-4-(6-((1-(3-hydroxypropyl)azetidin-3-yl)buta-1,3-diyn-1-yl)-3-oxo-1H-pyrrolo[1,2-c]imidazol-2(3H)-yl)-2-methyl-2-(methylsulfonyl)butanamide], the MIC with E. coli ATCC25922 worked out at 0.25 µg/mL (≈ 0.525 µM); against K. pneumoniae A-651, 1 µg/mL (≈ 2.1 µM); in the test on P. aeruginosa ATCC27853 it was 0.5 µg/mL (≈ 1.05 µM).
The corresponding values for `CN1CC(C)(C#CC#Cc2cc3n(c2)C(=O)N(CC[C@](C)(C(=O)NO)S(C)(=O)=O)C3)C1` [Example 65, (2R)-4-(6-((1,3-dimethylazetidin-3-yl)buta-1,3-diyn-1-yl)-3-oxo-1H-pyrrolo[1,2-c]imidazol-2(3H)-yl)-N-hydroxy-2-methyl-2-(methylsulfonyl)butanamide] are 1 µg/mL (≈ 2.24 µM), 1 µg/mL (≈ 2.24 µM) and 1 µg/mL (≈ 2.24 µM).
For `C[C@@](CCN1Cc2cc(C#CC#CC3(F)CN(CCO)C3)cn2C1=O)(C(=O)NO)S(C)(=O)=O` [Example 66, (2R)-4-(6-((3-fluoro-1-(2-hydroxyethyl)azetidin-3-yl)buta-1,3-diyn-1-yl)-3-oxo-1H-pyrrolo[1,2-c]imidazol-2(3H)-yl)-N-hydroxy-2-methyl-2-(methylsulfonyl)butanamide], the MIC was 0.5 µg/mL (≈ 1.04 µM) against E. coli ATCC25922, 1 µg/mL (≈ 2.08 µM) in the test on K. pneumoniae A-651 and 2 µg/mL (≈ 4.16 µM) with P. aeruginosa ATCC27853.
Taken in the same sequence, the figures for `C[C@@](CCN1Cc2cc(C#CC#CC3CN(CC(CO)CO)C3)cn2C1=O)(C(=O)NO)S(C)(=O)=O` [Example 67, (2R)—N-hydroxy-4-(6-((1-(3-hydroxy-2-(hydroxymethyl)propyl)azetidin-3-yl)buta-1,3-diyn-1-yl)-3-oxo-1H-pyrrolo[1,2-c]imidazol-2(3H)-yl)-2-methyl-2-(methylsulfonyl)butanamide] were 2 µg/mL (≈ 3.95 µM), 2 µg/mL (≈ 3.95 µM) and 1 µg/mL (≈ 1.97 µM).
Taken in the same sequence, the figures for `C[C@@](CCN1Cc2cc(C#CC#CC3CN(CC(F)F)C3)cn2C1=O)(C(=O)NO)S(C)(=O)=O` [Example 68, (2R)-4-(6-((1-(2,2-difluoroethyl)azetidin-3-yl)buta-1,3-diyn-1-yl)-3-oxo-1H-pyrrolo[1,2-c]imidazol-2(3H)-yl)-N-hydroxy-2-methyl-2-(methylsulfonyl)butanamide] were 0.063 µg/mL (≈ 0.131 µM), 0.25 µg/mL (≈ 0.518 µM) and 1 µg/mL (≈ 2.07 µM).
Taken in the same sequence, the figures for `C[C@@](CCN1Cc2cc(C#CC#CC3CN(C4CC(O)C4)C3)cn2C1=O)(C(=O)NO)S(C)(=O)=O` (stereo partly drawn) [Example 69, (2R)—N-hydroxy-4-(6-((1-(3-hydroxycyclobutyl)azetidin-3-yl)buta-1,3-diyn-1-yl)-3-oxo-1H-pyrrolo[1,2-c]imidazol-2(3H)-yl)-2-methyl-2-(methylsulfonyl)butanamide] were 0.25 µg/mL (≈ 0.512 µM), 0.5 µg/mL (≈ 1.02 µM) and 0.5 µg/mL (≈ 1.02 µM).
Turning to `C[C@@](CCN1Cc2cc(C#CC#CC3CN(C4CCCCC4)C3)cn2C1=O)(C(=O)NO)S(C)(=O)=O` [Example 70, (2R)-4-(6-((1-cyclohexylazetidin-3-yl)buta-1,3-diyn-1-yl)-3-oxo-1H-pyrrolo[1,2-c]imidazol-2(3H)-yl)-N-hydroxy-2-methyl-2-(methylsulfonyl)butanamide], the MIC with E. coli ATCC25922 is 0.125 µg/mL (≈ 0.25 µM); against K. pneumoniae A-651 it was 0.25 µg/mL (≈ 0.499 µM); with P. aeruginosa ATCC27853, 0.5 µg/mL (≈ 0.999 µM).
Taken in the same sequence, the figures for `C[C@@](CCN1Cc2cc(C#CC#CC3CN(C4CCCC4)C3)cn2C1=O)(C(=O)NO)S(C)(=O)=O` [Example 73, (2R)-4-(6-((1-cyclopentylazetidin-3-yl)buta-1,3-diyn-1-yl)-3-oxo-1H-pyrrolo[1,2-c]imidazol-2(3H)-yl)-N-hydroxy-2-methyl-2-(methylsulfonyl)butanamide] were 0.5 µg/mL (≈ 1.03 µM), 0.25 µg/mL (≈ 0.514 µM) and 1 µg/mL (≈ 2.06 µM).
Regarding `C[C@@](CCN1Cc2cc(C#CC#CC3CN(C4CCOCC4)C3)cn2C1=O)(C(=O)NO)S(C)(=O)=O` [Example 74, (2R)—N-hydroxy-2-methyl-2-(methylsulfonyl)-4-(3-oxo-6-((1-(tetrahydro-2H-pyran-4-yl)azetidin-3-yl)buta-1,3-diyn-1-yl)-1H-pyrrolo[1,2-c]imidazol-2(3H)-yl)butanamide], the MIC came out at 0.25 µg/mL (≈ 0.497 µM) in the test with E. coli ATCC25922, 0.25 µg/mL (≈ 0.497 µM) against K. pneumoniae A-651 and 1 µg/mL (≈ 1.99 µM) in the test with P. aeruginosa ATCC27853.
Turning to `C[C@@](CCN1Cc2cc(C#CC#CC3CN(C4CSC4)C3)cn2C1=O)(C(=O)NO)S(C)(=O)=O` [Example 75, (2R)—N-hydroxy-2-methyl-2-(methylsulfonyl)-4-(3-oxo-6-((1-(thietan-3-yl)azetidin-3-yl)buta-1,3-diyn-1-yl)-1H-pyrrolo[1,2-c]imidazol-2(3H)-yl)butanamide], the MIC with E. coli ATCC25922 was found to be 0.063 µg/mL (≈ 0.128 µM); in the test with K. pneumoniae A-651, 0.125 µg/mL (≈ 0.255 µM); against P. aeruginosa ATCC27853 it was 2 µg/mL (≈ 4.08 µM).
The corresponding values for `CCC1(C#CC#Cc2cc3n(c2)C(=O)N(CC[C@](C)(C(=O)NO)S(C)(=O)=O)C3)CN(C)C1` [Example 79, (2R)-4-(6-((3-ethyl-1-methylazetidin-3-yl)buta-1,3-diyn-1-yl)-3-oxo-1H-pyrrolo[1,2-c]imidazol-2(3H)-yl)-N-hydroxy-2-methyl-2-(methylsulfonyl)butanamide] are 2 µg/mL (≈ 4.34 µM), 2 µg/mL (≈ 4.34 µM) and 4 µg/mL (≈ 8.69 µM).
The corresponding values for `[2H]C([2H])S(=O)(=O)[C@](C)(CCN1Cc2cc(C#CC#CC3CN(C)C3)cn2C1=O)C(=O)NO` [Example 80, (2R)—N-hydroxy-2-methyl-2-((methyl-d2)sulfonyl)-4-(6-((1-methylazetidin-3-yl)buta-1,3-diyn-1-yl)-3-oxo-1H-pyrrolo[1,2-c]imidazol-2(3H)-yl)butanamide] are 0.5 µg/mL (≈ 1.15 µM), 0.5 µg/mL (≈ 1.15 µM) and 0.5 µg/mL (≈ 1.15 µM).
Taken in the same sequence, the figures for `[2H]C([2H])([2H])S(=O)(=O)[C@](C)(CCN1Cc2cc(C#CC#CC3CN(CCO)C3)cn2C1=O)C(=O)NO` [Example 81, (2R)—N-hydroxy-4-(6-((1-(2-hydroxyethyl)azetidin-3-yl)buta-1,3-diyn-1-yl)-3-oxo-1H-pyrrolo[1,2-c]imidazol-2(3H)-yl)-2-methyl-2-((methyl-d3)sulfonyl)butanamide] were 1 µg/mL (≈ 2.15 µM), 2 µg/mL (≈ 4.3 µM) and 1 µg/mL (≈ 2.15 µM).
Consider `CN1CC(C#Cc2ccc(-c3cc4n(c3)C(=O)N(CC[C@](C)(C(=O)NO)S(C)(=O)=O)C4)c(F)c2)C1` [Example 84, (2R)-4-(6-(2-fluoro-4-((1-methylazetidin-3-yl)ethynyl)phenyl)-3-oxo-1H-pyrrolo[1,2-c]imidazol-2(3H)-yl)-N-hydroxy-2-methyl-2-(methylsulfonyl)butanamide], for which the values for the MIC with E. coli ATCC25922, against K. pneumoniae A-651 and in the test with P. aeruginosa ATCC27853 were 0.5 µg/mL (≈ 0.995 µM), 1 µg/mL (≈ 1.99 µM) and 2 µg/mL (≈ 3.98 µM), respectively.
For `CN1CC(C#Cc2ccc(-c3cc4n(c3)C(=O)N(CC[C@](C)(C(=O)NO)S(C)(=O)=O)C4)cc2)C1` [Example 85, (2R)—N-hydroxy-2-methyl-4-(6-(4-((1-methylazetidin-3-yl)ethynyl)phenyl)-3-oxo-1H-pyrrolo[1,2-c]imidazol-2(3H)-yl)-2-(methylsulfonyl)butanamide], the figures for the MIC in the test with E. coli ATCC25922, in the test with K. pneumoniae A-651 and against P. aeruginosa ATCC27853 were 0.5 µg/mL (≈ 1.03 µM), 1 µg/mL (≈ 2.06 µM) and 1 µg/mL (≈ 2.06 µM), respectively.
For the compound `CN1CCC(C#Cc2ccc(-c3cc4n(c3)C(=O)N(CC[C@](C)(C(=O)NO)S(C)(=O)=O)C4)c(F)c2)CC1` [Example 87, (2R)-4-(6-(2-fluoro-4-((1-methylpiperidin-4-yl)ethynyl)phenyl)-3-oxo-1H-pyrrolo[1,2-c]imidazol-2(3H)-yl)-N-hydroxy-2-methyl-2-(methylsulfonyl)butanamide], the MIC in the test on E. coli ATCC25922 is 4 µg/mL (≈ 7.54 µM); in the test with K. pneumoniae A-651 it was over 8 µg/mL; against P. aeruginosa ATCC27853, 8 µg/mL (≈ 15.1 µM).
The corresponding values for `C[C@@](CCN1Cc2cc(-c3ccc(C#CC4CN(CCO)C4)cc3F)cn2C1=O)(C(=O)NO)S(C)(=O)=O` [Example 88, (2R)-4-(6-(2-fluoro-4-((1-(2-hydroxyethyl)azetidin-3-yl)ethynyl)phenyl)-3-oxo-1H-pyrrolo[1,2-c]imidazol-2(3H)-yl)-N-hydroxy-2-methyl-2-(methylsulfonyl)butanamide] are 0.5 µg/mL (≈ 0.939 µM), 2 µg/mL (≈ 3.76 µM) and 2 µg/mL (≈ 3.76 µM).
On to `C[C@@](CCN1Cc2cc(C#CC#CC3CCN(C4COC4)C3)cn2C1=O)(C(=O)NO)S(C)(=O)=O` (stereo partly drawn) [Example 89, (2R)—N-hydroxy-2-methyl-2-(methylsulfonyl)-4-(6-((1-(oxetan-3-yl)pyrrolidin-3-yl)buta-1,3-diyn-1-yl)-3-oxo-1H-pyrrolo[1,2-c]imidazol-2(3H)-yl)butanamide], for which the MIC against E. coli ATCC25922 amounted to 1 µg/mL (≈ 2.05 µM); in the test on K. pneumoniae A-651 it was 1 µg/mL (≈ 2.05 µM); in the test with P. aeruginosa ATCC27853, 2 µg/mL (≈ 4.09 µM).
For `C[C@@](CCN1Cc2cc(C#CC#CC3CN(C4CC(O)C4)C3)cn2C1=O)(C(=O)NO)S(C)(=O)=O` (stereo partly drawn) [Example 90, (2R)—N-hydroxy-4-(6-((1-((1r,3r)-3-hydroxycyclobutyl)azetidin-3-yl)buta-1,3-diyn-1-yl)-3-oxo-1H-pyrrolo[1,2-c]imidazol-2(3H)-yl)-2-methyl-2-(methylsulfonyl)butanamide], the “MIC for E. coli ATCC25922” value in the test with E. coli ATCC25922 was determined as 0.5 µg/mL. Also, the “MIC for K. Pneumoniae A-651” value with K. pneumoniae A-651 is 0.5 µg/mL. Besides, the “MIC for P. aeruginosa ATCC27853” value with P. aeruginosa ATCC27853 was determined as 1 µg/mL.
